From patent US20170112940A1, “Modified Collagen Hybridizing Peptides And Uses Thereof” (University of Utah Research Foundation, priority 2015, published 2017)

Columns and labels:
[1] = Melting temperature (melting curve) of the peptides in 1× PBS; type: physicochemical; conditions: FIG. 1
Method: The sample concentration tested is 200 uM. 7 is Ac-GPO-GPO-GPO-GPO-GPO-GPO-GPO (This is positive control). 7-1azGly is Ac-GPO-GPO-GPO-azGlyPO-GPO-GPO-GPO. 7-2azGly is Ac-GPO-GPO-azGlyPO-GPO-azGlyPO-GPO-GPO. Melting Temperature of 7 is 54° C. Melting Temperature of 7-1azGly is 65° C. Melting Temperature of 7-2azGly is 77° C.

BSA = BSA (Bos taurus, UniProt P02769); test: Fluorescent staining of SDS-PAGE, BSA lane; type: binding; conditions: SDS-PAGE stained with 35 μM peptide, 50 ug BSA (lane 2), FIG. 4
Method: (§1) FIGS. 4A and 4B show A) Fluorescent image of SDS-PAGE stained with 35 μM of CFG3(GPO)3AzGPO(GPO)3; B) SDS-PAGE stained with Commassie Blue. Lane 1: MW marker, Lane 2: 50 ug BSA, Lane 3: 5 ug Denatured Collagen (col), Lane 4: 10 ug Denatured Collagen (col). Commasie blue (4B) stains collagen (Lanes 3 and 4) as well as BSA (lane 2).

gelatin = test: Gelatin binding: peptide remaining on crosslinked gelatin film after binding and washing; conditions: FIG. 3
Method: 10: 10 μM added to crosslinked gelatin gel. […] 7 is CF-GGG-GPO-GPO-GPO-GPO-GPO-GPO-GPO (positive control). […] 7-2azGly is CF-GGG-GPO-GPO-azGlyPO-GPO-azGlyPO-GPO-GPO. Random9 is Scramble sequence of CF-GGG-(GPO)9 The sequence is CF-GGG-PGO-GPG-POP-OGO-GOP-PGO-OPG-GOO-PPG. (negative control).

Denatured Collagen = test: Fluorescent staining of SDS-PAGE, denatured collagen lanes; type: binding; conditions: SDS-PAGE stained with 35 μM peptide, 5 ug and 10 ug denatured collagen (lanes 3 and 4), FIG. 4
Method: as §1

[2] = listed as CFG3(GPO)3AzGPO(GPO)3

BSA, sequence (P02769 25-607): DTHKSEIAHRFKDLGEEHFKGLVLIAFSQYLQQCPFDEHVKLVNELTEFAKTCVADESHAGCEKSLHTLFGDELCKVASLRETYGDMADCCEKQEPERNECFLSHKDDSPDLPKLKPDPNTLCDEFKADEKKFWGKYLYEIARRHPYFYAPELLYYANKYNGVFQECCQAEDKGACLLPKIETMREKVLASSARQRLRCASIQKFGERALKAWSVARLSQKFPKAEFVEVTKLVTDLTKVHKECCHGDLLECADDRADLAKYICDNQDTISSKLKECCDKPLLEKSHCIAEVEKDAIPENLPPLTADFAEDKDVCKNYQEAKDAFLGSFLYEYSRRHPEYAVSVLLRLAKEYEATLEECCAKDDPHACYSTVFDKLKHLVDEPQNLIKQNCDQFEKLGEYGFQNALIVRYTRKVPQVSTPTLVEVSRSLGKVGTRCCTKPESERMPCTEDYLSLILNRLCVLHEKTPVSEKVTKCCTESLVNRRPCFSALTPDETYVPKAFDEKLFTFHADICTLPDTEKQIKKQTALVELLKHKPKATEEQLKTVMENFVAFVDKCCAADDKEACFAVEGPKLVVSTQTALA

Ac-GPO-GPO-GPO-azGlyPO-GPO-GPO-GPO [7-1azGly]
triple helical structure indicated by sigmoidal shape of the melting curve [1]: has triple helical structure

Ac-GPO-GPO-azGlyPO-GPO-azGlyPO-GPO-GPO [7-2azGly]
triple helical structure indicated by sigmoidal shape of the melting curve [1]: has triple helical structure

CF-GGG-GPO-GPO-GPO-azGlyPO-GPO-GPO-GPO [7-1azGly]
staining of / binding to denatured BSA (BSA; listed as Aza-CHP): does not bind to denatured BSA
staining of / binding to denatured BSA (BSA; [2]): almost no signal from lane 2
binding affinity to gelatin (comparison in words) (gelatin): much higher than GPO7
staining of / binding to denatured collagen (Denatured Collagen; listed as Aza-CHP): binds to denatured collagen
staining of / binding to denatured collagen (Denatured Collagen; [2]): stains only collagen

CF-GGG-GPO-GPO-azGlyPO-GPO-azGlyPO-GPO-GPO [7-2azGly]
binding affinity to gelatin (comparison in words) (gelatin): further increases the binding affinity to gelatin
